In brackets after ≈: the same amount, converted by molar mass.
What was measured:
[1] = biological target: T1, Nuclear receptor subfamily 1 group I member 2 (Homo sapiens, UniProt O75469); assay: Activation of PXR in human LS180 cells assessed as P-gp induction by measuring intracellular accumulation of rhodamine 123 per ug of total protein at 5 uM preincubated for 48 hrs followed by rhodamine 123 addition after 40 mins and measured after 90 mins by fluorescence assay relative to control; format: cell-based; conditions: 1.5 h
T1 sequence (O75469 whole entry): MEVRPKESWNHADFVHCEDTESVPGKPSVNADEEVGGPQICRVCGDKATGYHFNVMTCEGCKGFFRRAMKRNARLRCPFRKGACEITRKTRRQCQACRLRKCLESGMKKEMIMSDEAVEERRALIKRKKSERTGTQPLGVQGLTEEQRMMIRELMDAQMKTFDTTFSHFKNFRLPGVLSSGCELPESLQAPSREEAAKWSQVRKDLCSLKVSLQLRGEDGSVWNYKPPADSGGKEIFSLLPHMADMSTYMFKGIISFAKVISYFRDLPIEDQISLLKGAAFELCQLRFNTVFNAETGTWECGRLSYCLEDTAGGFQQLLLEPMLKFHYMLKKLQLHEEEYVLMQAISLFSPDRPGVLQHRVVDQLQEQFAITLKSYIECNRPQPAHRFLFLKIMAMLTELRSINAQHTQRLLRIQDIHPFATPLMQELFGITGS

[2] = Cytotoxicity against human LS180 cells assessed as cell viability at 30 uM after 24 hrs by MTT assay relative to control; format: cell-based; conditions: read-out: Activity
LS180 = assay: Cytotoxicity against human LS180 cells assessed as reduction in cell viability after 24 hrs by MTT assay; format: cell-based; conditions: LS180, 24 h
[3] = biological target: T2, P-gp (expression induced through PXR) (Homo sapiens, UniProt O75469); assay: Activation of PXR in human LS180 cells assessed as induction of P-gp expression at 5 uM by Western blot method relative to control; format: cell-based; conditions: read-out: FC
T2 sequence (O75469 whole entry): T1 sequence (O75469 whole entry)

[4] = biological target: T1, Nuclear receptor subfamily 1 group I member 2; assay: Activation of PXR in human LS180 cells assessed as P-gp induction by measuring intracellular accumulation of rhodamine 123 preincubated for 48 hrs followed by rhodamine 123 addition after 40 mins and measured after 90 mins by fluorescence assay; format: cell-based
[5] = Thermodynamic aqueous solubility of the compound in water after overnight incubation; format: physicochemical; conditions: read-out: Therm_solubility
[6] = Thermodynamic aqueous solubility of the compound in phosphate buffered saline at pH 7.4 after overnight incubation; format: physicochemical; conditions: read-out: Therm_solubility
[7] = Thermodynamic aqueous solubility of the compound in simulated gastric fluid at pH 1.2 after overnight incubation; format: physicochemical; conditions: read-out: Therm_solubility
[8] = Thermodynamic aqueous solubility of the compound in simulated intestinal fluid at pH 6.8 after overnight incubation; format: physicochemical; conditions: read-out: Therm_solubility
CYP3A4 = CYP3A4 (Homo sapiens, UniProt P08684); assay: Inhibition of human recombinant CYP3A4 at 10 uM by fluorescence analysis relative to control; format: ADME
CYP2D6 = CYP2D6 (Homo sapiens, UniProt P10635); assay: Inhibition of human recombinant CYP2D6 at 10 uM by fluorescence analysis relative to control; format: ADME
CYP2C9 = CYP2C9 (Homo sapiens, UniProt P11712); assay: Inhibition of human recombinant CYP2C9 at 10 uM by fluorescence analysis relative to control; format: ADME
CYP2C19 = CYP2C19 (Homo sapiens, UniProt P33261); assay: Inhibition of human recombinant CYP2C19 at 10 uM by fluorescence analysis relative to control; format: ADME
[9] = Efflux ratio of permeability in human Caco2 cells after 90 mins by LC-MS/MS analysis; format: ADME, cell-based; conditions: Caco-2
[10] = Terminal half life in BALB/c mouse plasma at 1 mg/kg, iv by LC-MS/MS analysis; format: ADME, organism-based; conditions: read-out: beta t1/2 (converted)
[11] = AUC (0 to t) in BALB/c mouse plasma at 1 mg/kg, iv up to 24 hrs by LC-MS/MS analysis; format: ADME, organism-based; design: dose 1 mg/kg, time < 24 hr, route intravenous
[12] = AUC (0 to infinity) in BALB/c mouse plasma at 1 mg/kg, iv up to 24 hrs by LC-MS/MS analysis; format: ADME, organism-based; design: dose 1 mg/kg, route intravenous, time infinity
[13] = Cmax in BALB/c mouse plasma at 1 mg/kg, iv up to 24 hrs by LC-MS/MS analysis; format: ADME, organism-based; design: dose 1 mg/kg, route intravenous
[14] = Clearance in BALB/c mouse plasma at 1 mg/kg, iv up to 24 hrs by LC-MS/MS analysis; format: ADME, organism-based
[15] = Initial plasma concentration in BALB/c mouse at 1 mg/kg, iv up to 24 hrs by LC-MS/MS analysis; format: ADME, organism-based
[16] = Volume of distribution in BALB/c mouse at 1 mg/kg, iv up to 24 hrs by LC-MS/MS analysis; format: ADME, organism-based; conditions: in vivo
[17] = Volume of distribution at steady state in BALB/c mouse at 1 mg/kg, iv up to 24 hrs by LC-MS/MS analysis; format: ADME, organism-based; conditions: in vivo, read-out: Vdss
Mus musculus = assay: Tlast in BALB/c mouse at 1 mg/kg, iv up to 24 hrs by LC-MS/MS analysis; format: ADME, organism-based; conditions: in vivo
[18] = Terminal half life in BALB/c mouse plasma at 10 mg/kg, po by LC-MS/MS analysis; format: ADME, organism-based; conditions: read-out: beta t1/2 (converted)
[19] = AUC (0 to t) in BALB/c mouse plasma at 10 mg/kg, po up to 24 hrs by LC-MS/MS analysis; format: ADME, organism-based; design: dose 10 mg/kg, time < 24 hr, route oral
[20] = AUC (0 to infinity) in BALB/c mouse plasma at 10 mg/kg, po up to 24 hrs by LC-MS/MS analysis; format: ADME, organism-based; design: dose 10 mg/kg, time infinity, route oral
[21] = Cmax in BALB/c mouse plasma at 10 mg/kg, po up to 24 hrs by LC-MS/MS analysis; format: ADME, organism-based; design: dose 10 mg/kg, route oral
[22] = Tmax in BALB/c mouse plasma at 10 mg/kg, po up to 24 hrs by LC-MS/MS analysis; format: ADME, organism-based
[23] = Oral bioavailability in BALB/c mouse plasma at 10 mg/kg up to 24 hrs by LC-MS/MS analysis; format: ADME, organism-based

Sequence of CYP2D6 (P10635 whole entry): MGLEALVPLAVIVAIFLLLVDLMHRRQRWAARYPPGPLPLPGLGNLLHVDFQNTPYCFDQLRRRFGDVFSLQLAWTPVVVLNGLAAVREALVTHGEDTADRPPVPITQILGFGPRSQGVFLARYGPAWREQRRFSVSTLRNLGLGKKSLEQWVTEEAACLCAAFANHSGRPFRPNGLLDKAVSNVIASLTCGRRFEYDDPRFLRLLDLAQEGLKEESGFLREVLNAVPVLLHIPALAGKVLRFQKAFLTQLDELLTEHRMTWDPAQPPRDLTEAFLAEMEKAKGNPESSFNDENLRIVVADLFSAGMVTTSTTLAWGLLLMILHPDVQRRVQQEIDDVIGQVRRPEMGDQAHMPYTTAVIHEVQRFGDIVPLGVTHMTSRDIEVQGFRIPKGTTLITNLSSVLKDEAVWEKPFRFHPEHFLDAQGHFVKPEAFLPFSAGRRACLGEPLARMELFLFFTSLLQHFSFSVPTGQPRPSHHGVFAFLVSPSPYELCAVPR
Sequence of CYP2C19 (P33261 whole entry): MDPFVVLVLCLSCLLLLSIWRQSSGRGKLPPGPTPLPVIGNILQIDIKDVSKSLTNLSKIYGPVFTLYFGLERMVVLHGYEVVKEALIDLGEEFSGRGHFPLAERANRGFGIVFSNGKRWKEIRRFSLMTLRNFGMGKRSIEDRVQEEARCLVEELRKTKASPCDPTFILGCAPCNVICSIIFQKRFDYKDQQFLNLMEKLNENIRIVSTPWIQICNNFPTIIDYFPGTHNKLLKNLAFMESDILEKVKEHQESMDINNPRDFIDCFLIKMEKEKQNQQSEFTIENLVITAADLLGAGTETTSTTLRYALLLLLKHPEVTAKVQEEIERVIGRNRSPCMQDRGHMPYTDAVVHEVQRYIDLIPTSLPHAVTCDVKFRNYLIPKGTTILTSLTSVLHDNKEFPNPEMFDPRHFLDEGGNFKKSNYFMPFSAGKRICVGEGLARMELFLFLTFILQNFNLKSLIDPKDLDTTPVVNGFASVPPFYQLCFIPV
Sequence of CYP2C9 (P11712 whole entry): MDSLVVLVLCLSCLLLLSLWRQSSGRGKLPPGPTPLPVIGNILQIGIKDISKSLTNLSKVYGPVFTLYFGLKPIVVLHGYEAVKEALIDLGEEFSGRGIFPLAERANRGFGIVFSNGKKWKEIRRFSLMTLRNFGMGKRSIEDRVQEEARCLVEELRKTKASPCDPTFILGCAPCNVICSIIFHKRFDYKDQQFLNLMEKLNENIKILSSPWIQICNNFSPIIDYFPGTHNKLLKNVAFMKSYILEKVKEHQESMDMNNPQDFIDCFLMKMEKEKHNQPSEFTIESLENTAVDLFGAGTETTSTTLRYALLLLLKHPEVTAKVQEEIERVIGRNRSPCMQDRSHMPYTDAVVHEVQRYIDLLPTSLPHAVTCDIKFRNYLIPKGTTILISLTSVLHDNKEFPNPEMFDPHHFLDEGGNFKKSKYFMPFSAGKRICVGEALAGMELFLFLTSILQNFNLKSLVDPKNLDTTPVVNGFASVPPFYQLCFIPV
Sequence of CYP3A4 (P08684 whole entry): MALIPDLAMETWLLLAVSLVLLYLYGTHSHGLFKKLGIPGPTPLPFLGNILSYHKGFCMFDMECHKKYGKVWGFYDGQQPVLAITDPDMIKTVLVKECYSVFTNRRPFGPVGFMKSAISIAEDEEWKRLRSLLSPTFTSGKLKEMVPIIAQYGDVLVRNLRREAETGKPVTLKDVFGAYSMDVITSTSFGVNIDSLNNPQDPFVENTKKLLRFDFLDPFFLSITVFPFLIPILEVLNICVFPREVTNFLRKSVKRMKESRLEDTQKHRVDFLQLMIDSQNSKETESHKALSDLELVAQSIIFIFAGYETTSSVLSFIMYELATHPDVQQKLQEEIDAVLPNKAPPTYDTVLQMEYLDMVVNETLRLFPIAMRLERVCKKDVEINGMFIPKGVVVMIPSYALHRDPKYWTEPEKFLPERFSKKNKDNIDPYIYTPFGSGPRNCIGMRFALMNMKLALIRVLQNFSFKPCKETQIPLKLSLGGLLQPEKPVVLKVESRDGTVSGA

CC(C)OP(=O)(OC(C)C)C(=Cc1cc(C(C)(C)C)c(O)c(C(C)(C)C)c1)P(=O)(OC(C)C)OC(C)C
Activity [1]: 66.93%
viability at 24 h, 30 µM [2]: 100%
IC50 (LS180): > 30 µM

COc1cc(C=C(P(=O)(OC(C)C)OC(C)C)P(=O)(OC(C)C)OC(C)C)ccc1F
Activity [1]: 70%
viability at 24 h, 30 µM [2]: 86%
IC50 (LS180): > 30 µM

CC(C)OP(=O)(OC(C)C)C(=Cc1ccc(N(C)C)cc1)P(=O)(OC(C)C)OC(C)C
Activity [1]: 65.32%
viability at 24 h, 30 µM [2]: 100%
IC50 (LS180): > 30 µM

CC(C)OP(=O)(OC(C)C)C(=Cc1cccc2ncccc12)P(=O)(OC(C)C)OC(C)C
Activity [1]: 70.48%
viability at 24 h, 30 µM [2]: 100%
IC50 (LS180): > 30 µM

CCOP(=O)(/C=C/c1cc(F)cc(F)c1)OCC
Activity [1]: 91.31%
viability at 24 h, 30 µM [2]: 100%
IC50 (LS180): > 30 µM

CCOP(=O)(OCC)C(=Cc1ccccc1[N+](=O)[O-])P(=O)(OCC)OCC
Activity [1]: 65.69%
viability at 24 h, 30 µM [2]: 100%
IC50 (LS180): > 30 µM

CCOP(=O)(C#Cc1ccccc1)OCC
Activity [1]: 77.64%
viability at 24 h, 30 µM [2]: 100%
IC50 (LS180): > 30 µM

CCOP(=O)(C#Cc1cccc(C(F)(F)F)c1)OCC
Activity [1]: 75.16%
viability at 24 h, 30 µM [2]: 100%
IC50 (LS180): > 30 µM

CC(C)OP(=O)(OC(C)C)C(=Cc1ccc([N+](=O)[O-])o1)P(=O)(OC(C)C)OC(C)C
Activity [1]: 67.84%
viability at 24 h, 30 µM [2]: 41%

CCOP(=O)(OCC)C(=Cc1ccc([N+](=O)[O-])o1)P(=O)(OCC)OCC
Activity [1]: 88.3%
viability at 24 h, 30 µM [2]: 92%
IC50 (LS180): > 30 µM

CCOP(=O)(/C=C/c1ccc(F)c(Br)c1)OCC
Activity [1]: 97.7%
viability at 24 h, 30 µM [2]: 100%
IC50 (LS180): > 30 µM

CC(C)OP(=O)(OC(C)C)C(=Cc1ccc2c(c1)OCO2)P(=O)(OC(C)C)OC(C)C
Activity [1]: 83.27%
viability at 24 h, 30 µM [2]: 100%
IC50 (LS180): > 30 µM

CCOP(=O)(OCC)C(Nc1ccccc1)c1ccc(Cl)cc1 (configuration not stated)
Activity [1]: 90.85%
viability at 24 h, 30 µM [2]: 100%
IC50 (LS180): > 30 µM

CCOP(=O)(OCC)C(=Cc1ccccc1)P(=O)(OCC)OCC
Activity [1]: 58.09%
viability at 24 h, 30 µM [2]: 100%
fold induction at 5 µM [3]: 7.2
EC50 [4]: 0.271 µM
solubility thermodynamic [5]: > 1500 µg/mL
solubility thermodynamic [6]: > 1500 µg/mL
solubility thermodynamic [7]: > 1500 µg/mL
solubility thermodynamic [8]: 40 µg/mL (≈ 0.106 mM)
inhibition at 10 µM (CYP3A4): 19%
inhibition at 10 µM (CYP2D6): 20%
inhibition at 10 µM (CYP2C9): 0%
inhibition at 10 µM (CYP2C19): 0%
efflux ratio at 1.5 h [9]: 0.9
half-life [10]: 41.4 min
AUC(0-t) at 24 h [11]: 543 ng·h/mL
AUC(0-inf) [12]: 549 ng·h/mL
Cmax [13]: 811 ng/mL
clearance [14]: 30.4 mL/min/kg
C0 at 24 h [15]: 1150 ng/mL
Vd [16]: 1.81 L/kg
Vd [17]: 1.1 L/kg
Tlast (Mus musculus): 4 h
half-life [18]: 209 min
AUC(0-t) at 24 h [19]: 1970 ng·h/mL
AUC(0-inf) [20]: 2070 ng·h/mL
Cmax [21]: 870 ng/mL
Tmax [22]: 30 min
bioavailability [23]: 37.6%
IC50 (LS180): > 30 µM
